Assay results taken from patent publication US20250332139A1, “PS[…] AND THEIR USE FOR TREATING […] AND NE[…] DISORDERS” (Transcend Therapeutics, Inc., priority 2021, published 2025).

Test system: Sprague Dawley rats
Assay: Forced Swim Test (FST)
Format: in vivo, rat
Excerpt: The Forced Swim Test (FST) is a classic, and the most used preclinical behavioral assay to screen compounds with antidepressant-like activity and has high predictive and face validity (Porsolt et al. (1977) Nature 266:730; Borsini and Meli (1988) Psychopharmacology 94:147). The premise of the FST is that when rats are placed into a cylinder filled with water, they will initially try to escape, but over time will become immobile. This increased immobility reflects behavioral despair, modeling a depressive-like state.
Forced Swim Test (FST): In the FST trial, rats were placed in a circular plexiglass container filled with water, with no means of escape. Water temperature was maintained at 22-25° C. and changed for every animal. After an acclimation period, rats were timed for inactivity (failure to struggle), activity, swim time and climbing time. Day 1 consisted of a 15 min acclimation trial, and Day 2 (24 h later) consisted of the 5 min test. A time sampling procedure was employed where animals were observed every 5 sec and scored for immobility, swimming, or climbing. Fluoxetine (10 mg/kg, IP, Sigma Aldrich) or 0.9% sterile saline vehicle (vehicle 3X group) were administered 23.5, 5, and 1 h before testing in the FST. […] The experimenter was blinded to treatment.
Forced Swim Test: In the FST trial, rats were placed in a circular plexiglass container filled with water, with no means of escape. Water temperature was maintained at 22-25° C. and changed for every animal. After an acclimation period, rats were timed for inactivity (failure to struggle), activity, swim time and climbing time. Day 1 consisted of a 15 min acclimation trial, and Day 2 (24 h later) consisted of the 5 min test. A time sampling procedure was employed where animals were observed every 5 sec and scored for immobility, swimming, or climbing. Fluoxetine (10 mg/kg, IP, Sigma Aldrich) or 0.9% sterile saline vehicle (vehicle 3X group) were administered 23.5, 5, and 1 h before testing in the FST. 2C-B (2.5, 10, or 20 mg/kg, IP, Cayman Chemical) or 0.9% saline vehicle (vehicle 1X group) were administered 30 min prior to FST testing. The experimenter was blinded to treatment.
Drug Treatment: Fluoxetine (10 mg/kg, IP, Sigma Aldrich) or 0.9% sterile saline vehicle were administered 23.5, 5, and 1 h before testing in the FST. […] Control animals received fluoxetine alone, methylone alone, or saline vehicle.
Forced Swim Test: In the FST trial, rats were placed in a circular plexiglass container filled with water, with no means of escape. Water temperature was maintained at 22-25° C. and changed for every animal. After an acclimation period, rats were timed for inactivity (failure to struggle), activity, swim time and climbing time. The experimenter and scorer were blind to treatment group. Day 1 consisted of a 15 min acclimation trial, and Day 2 (24 h later) consisted of the 5 min test. A time sampling procedure was employed where animals were observed every 5 sec and scored for immobility, swimming, or climbing.
The FST was performed and scored by an experimenter blind to treatment group according to standard protocols and based on a “modified FST” procedure (Slattery and Cryan (2012) Nat Protoc, 7:1009). Briefly, rats were placed in a circular plexiglass container (29.2 cm diameter, 49.5 cm height) filled with water to a depth of 30 cm so rats could not support themselves by touching the bottom of the tank. Water was maintained at 22-25° C. and was changed for every animal. Day 1 (Training) consisted of a 15 min acclimation trial, and Day 2 (Testing, 24 h later) consisted of the 5 min test. A time sampling procedure was employed where animals were observed every 5 seconds for the duration of the test session (60 counts or 5 minutes) and scored for immobility (defined as the failure to struggle), swimming (defined as a circular movement around the tank), or climbing (defined as an upwards escape behavior). […]

CNC(C)C(=O)c1ccc2c(c1)OCO2 (stereo not drawn) [methylone, 3,4-methylenedioxy-N-methylcathinone]
antidepressant-like effect in FST (15 mg/kg PO, single dose 2 hours before test, vs vehicle): significant antidepressant-like effect
climbing behavior (Example 8, Methylone 5 or 15 mg/kg IP): significantly increased climbing behavior
climbing (methylone 5-30 mg/kg IP, 30 min before test): only increased at the lowest dose
effectiveness in FST (methylone doses of 10 mg/kg or more): maximally effective
swimming (mid and high doses of methylone IP, 30 min before test): significantly increased swimming
immobility (single dose 5, 10, 15, 20, 30 mg/kg IP 30 min before test, vs saline vehicle): significantly reduced immobility
